Reference: patent US12692238B2, “Substituted pyridazinone herbicides” (FMC CORPORATION, priority 2020, dated 2026)

What was measured:
Format in all cases: in vivo
[1] = tested on: barnyardgrass (Echinochloa crus-galli); assay: Test A preemergence, barnyardgrass; settings: 10 days
Description: (§1) Seeds of plant species selected from barnyardgrass (Echinochloa crus-galli), blackgrass (Alopecurus myosuroides), corn (Zea mays), foxtail, giant (giant foxtail, Setaria faberi), foxtail, green (green foxtail, Setaria viridis), goosegrass (Eleusine indica), kochia (Bassia scoparia), oat, wild (wild oat, Avena fatua), palmer amaranth (pigweed, palmer, Amaranthus palmeri), redroot pigweed (Amaranthus retroflexus), ragweed (common ragweed, Ambrosia artemisiifolia), ryegrass, Italian (Italian ryegrass, Lolium multiflorum), and soybean (Glycine max) were planted into a blend of loam soil and sand and treated preemergence with a directed soil spray using test chemicals formulated in a non-phytotoxic solvent mixture which included a surfactant.
(§2) At the same time, plants selected from these crop and weed species and also wheat (Triticum aestivum), galium (catchweed bedstraw, Galium aparine) and horseweed (Erigeron canadensis) were planted in pots containing the same blend of loam soil and sand and treated with postemergence applications of test chemicals formulated in the same manner. Plants ranged in height from 2 to 10 cm and were in the one- to two-leaf stage for the postemergence treatment. Treated plants and untreated controls were maintained in a greenhouse for 10 days, after which time all treated plants were compared to untreated controls and visually evaluated for injury. Plant response ratings, summarized in Table A, are based on a 0 to 100 scale where 0 is no effect and 100 is complete control. A dash (-) response means no test result.

[2] = tested on: kochia (Bassia scoparia); assay: Test A postemergence, kochia; settings: 10 days
Description: as §1, §2

[3] = tested on: ryegrass, Italian (Italian ryegrass, Lolium multiflorum); assay: Test A postemergence, ryegrass, Italian; settings: 10 days
Description: as §1, §2

[4] = tested on: rice (Oryza sativa); assay: Test B flooded paddy test, rice; settings: 250 g ai/ha, Flood; visually evaluated after 10 to 14 days
Description: (§3) Plant species in the flooded paddy test selected from barnyardgrass (Echinochloa crus-galli), ducksalad (Heteranthera limosa), rice (Oryza sativa), and sedge, umbrella (small-flower umbrella sedge, Cyperus difformis) were grown to the 2-leaf stage for testing. At time of treatment, test pots were flooded to 3 cm above the soil surface, treated by application of test compounds directly to the paddy water, and then maintained at that water depth for the duration of the test. Treated plants and controls were maintained in a greenhouse for 10 to 14 days, after which time all species were compared to controls and visually evaluated. Plant response ratings, summarized in Table B, are based on a scale of 0 to 100 where 0 is no effect and 100 is complete control. A dash (-) response means no test result.

[5] = tested on: barnyardgrass (Echinochloa crus-galli); assay: Test A postemergence, barnyardgrass; settings: 10 days
Description: as §1, §2

[6] = tested on: galium (catchweed bedstraw, Galium aparine); assay: Test A postemergence, galium; settings: 10 days
Description: as §1, §2

[7] = tested on: foxtail, giant (giant foxtail, Setaria faberi); assay: Test A postemergence, foxtail, giant; settings: 10 days
Description: as §1, §2

[8] = tested on: redroot pigweed (Amaranthus retroflexus); assay: Test A postemergence, redroot pigweed; settings: 10 days
Description: as §1, §2

[9] = tested on: redroot pigweed (Amaranthus retroflexus); assay: Test A preemergence, redroot pigweed; settings: 0 to 100 scale, 10 days
Description: as §1, §2

[10] = tested on: ragweed (common ragweed, Ambrosia artemisiifolia); assay: Test A postemergence, ragweed; settings: 10 days
Description: as §1, §2

[11] = tested on: kochia (Bassia scoparia); assay: Test A preemergence, kochia; settings: 0 to 100 scale, 10 days
Description: as §1, §2

[12] = tested on: foxtail, giant (giant foxtail, Setaria faberi); assay: Test A preemergence, foxtail, giant; settings: 0 to 100 scale, 10 days
Description: as §1, §2

[13] = tested on: corn (Zea mays); assay: Test A postemergence, corn; settings: 10 days
Description: as §1, §2

[14] = tested on: barnyardgrass (Echinochloa crus-galli); assay: Test B flooded paddy test, barnyardgrass; settings: 250 g ai/ha, Flood; visually evaluated after 10 to 14 days
Description: as §3

[15] = tested on: blackgrass (Alopecurus myosuroides); assay: Test A postemergence, blackgrass; settings: 10 days
Description: as §1, §2

[16] = tested on: ragweed (common ragweed, Ambrosia artemisiifolia); assay: Test A preemergence, ragweed; settings: 0 to 100 scale, 10 days
Description: as §1, §2

[17] = tested on: sedge, umbrella (small-flower umbrella sedge, Cyperus difformis); assay: Test B flooded paddy test, sedge, umbrella; settings: 250 g ai/ha, Flood; visually evaluated after 10 to 14 days
Description: as §3

[18] = tested on: ducksalad (Heteranthera limosa); assay: Test B flooded paddy test, ducksalad; settings: 250 g ai/ha, Flood; visually evaluated after 10 to 14 days
Description: as §3

[19] = tested on: ryegrass, Italian (Italian ryegrass, Lolium multiflorum); assay: Test A preemergence, ryegrass, Italian; settings: 0 to 100 scale, 10 days
Description: as §1, §2

[20] = tested on: wheat (Triticum aestivum); assay: Test A postemergence, wheat; settings: 10 days
Description: as §1, §2

[21] = 31 g ai/ha, postemergence, 0 to 100 scale (0 no effect, 100 complete control)
[22] = Postemergence, 125 g ai/ha, 0 to 100 scale

COc1cc(OC)c2cc3ccc(F)cc3c(-c3c(OCOC(C)=O)c(C)nn(C)c3=O)c2c1 [Compound 25]
0: Plant response rating, Barnyardgrass ([1]; 31 g ai/ha, 0 to 100 scale) | Plant response rating, Barnyardgrass ([1]; 125 g ai/ha, 0 to 100 scale (0 no effect, 100 complete control)) | Plant response rating, Kochia [2, 21] | Plant response rating, Ryegrass, Italian [3, 21] | Plant response rating, Ryegrass, Italian [3, 22] | Plant response rating, Rice (0 to 100 scale where 0 is no effect and 100 is complete control) [4] | Plant response rating, Barnyardgrass [5, 21] | Plant response rating, Foxtail, Giant [7, 21] | Plant response rating, Pigweed, Redroot ([9]; 31 g ai/ha) | Plant response rating, Ragweed [10, 21] | Plant response rating, Ragweed [10, 22] | Plant response rating, Kochia ([11]; 31 g ai/ha) | Plant response rating, Kochia ([11]; 125 g ai/ha) | Plant response rating, Foxtail, Giant ([12]; 31 g ai/ha) | Plant response rating, Foxtail, Giant ([12]; 125 g ai/ha) | Plant response rating, Corn [13, 21] | Plant response rating, Barnyardgrass (0 to 100 scale where 0 is no effect and 100 is complete control) [14] | Plant response rating, Blackgrass [15, 21] | Plant response rating, Ragweed ([16]; 31 g ai/ha) | Plant response rating, Ragweed ([16]; 125 g ai/ha) | Plant response rating, Sedge, Umbrella (0 to 100 scale where 0 is no effect and 100 is complete control) [17] | Plant response rating, Ducksalad (0 to 100 scale where 0 is no effect and 100 is complete control) [18] | Plant response rating, Ryegrass, Italian ([19]; 31 g ai/ha) | Plant response rating, Ryegrass, Italian ([19]; 125 g ai/ha) | Plant response rating, Wheat [20, 21] | Plant response rating, Wheat [20, 22]
30: Plant response rating, Pigweed, Redroot ([9]; 125 g ai/ha)
80: Plant response rating, Pigweed, Redroot [8, 21]
10: Plant response rating, Kochia [2, 22] | Plant response rating, Barnyardgrass [5, 22] | Plant response rating, Blackgrass [15, 22]
20: Plant response rating, Foxtail, Giant [7, 22] | Plant response rating, Corn [13, 22]
90: Plant response rating, Pigweed, Redroot [8, 22]
50: Plant response rating, Galium [6, 21]
60: Plant response rating, Galium [6, 22]
